Counter-ions that a name gives are not always drawn.

These results are taken from US8476267B2, “Imidazo-, pyrazolopyrazines and imidazotriazines and their use” (Bayer Intellectual Property GmbH, priority 2007, dated 2013).

Chain of GSK3β (P49841 whole entry, species assumed): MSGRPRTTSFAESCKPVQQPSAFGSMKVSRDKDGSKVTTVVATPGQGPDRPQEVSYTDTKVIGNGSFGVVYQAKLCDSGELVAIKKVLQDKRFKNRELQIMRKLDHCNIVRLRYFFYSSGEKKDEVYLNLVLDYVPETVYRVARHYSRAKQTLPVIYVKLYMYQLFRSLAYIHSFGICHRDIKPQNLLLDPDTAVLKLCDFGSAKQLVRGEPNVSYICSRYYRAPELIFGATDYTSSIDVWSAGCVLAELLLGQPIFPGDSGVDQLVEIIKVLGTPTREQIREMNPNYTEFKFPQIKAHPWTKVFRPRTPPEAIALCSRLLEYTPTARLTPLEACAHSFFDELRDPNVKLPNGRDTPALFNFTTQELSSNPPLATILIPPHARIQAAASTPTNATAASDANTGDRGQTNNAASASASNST

This assay addresses GSK3β (Homo sapiens (Human), UniProt P49841). In words: In vitro biochemical GSK3β inhibition assay (fluorescence, NADH-coupled). Conditions: 5 nM GSK3β, 40 μM substrate GSM, 50 μM ATP, 30° C., 2 hours. On the procedure: The inhibitory activity of active substances is determined in a biochemical assay. The ingredients required for this purpose are mixed in a black 384-well microtiter plate with transparent base (from Greiner, catalog number 781092). The requirements in this connection for each well of the 384-well microtiter plate are 5 nM GSK3β (from Upstate, catalog number xy), 40 μM GSK3β substrate GSM (sequence H-RRRPASVPPSPSLSRHS-(pS)-HQRR, from Upstate, catalog number 2-533), 30 μM nicotinamide adenine dinucleotide NADH (Roche Diagnostics, catalog number 10107735), 50 μM adenosine triphosphate ATP (from Sigma, catalog number A7966) and 2 mM phosphoenolpyruvate (from Roche, catalog number 128112). The required reaction buffer in which the biochemical reaction takes place consists of 50 mM Trizma hydrochloride Tris-HCl pH: 7.5 (from Sigma, catalog number T3253), 5 mM magnesium chloride MgCl2 (from Sigma, catalog number M8266), 0.2 mM DL-dithiothreitol DTT (from Sigma, catalog number D9779), 2 mM ethylenediaminetetraacetic acid EDTA (from Sigma, catalog number E6758), 0.01% Triton X-100 (from Sigma, catalog number T8787) and 0.05% bovine serum albumin BSA (from Sigma, catalog number B4287).
Active substances are dissolved in dimethyl sulfoxide DMSO (from Sigma, catalog number D8418) in a concentration of 10 mM. Active substances are added in serial concentrations of 10 μM, 1 μM, 0.1 μM, 0.01 μM, 0.001 μM, 0.0001 μM, 0.00001 μM, 0.000001 μM to the mixtures of the biochemical reaction. As control, dimethyl sulfoxide is added instead of substance in a final concentration of 0.1%.
The reaction is incubated at 30° C. for 2 hours and then the resulting fluorescence is measured in a Tecan Safire-XFLUOR4 instrument, version V4.50 (serial number 12901300283) with the specifications: measurement mode—fluorescence measured from below, extinction wavelength 340 nm, emission wavelength 465 nm, slit width extinction 5 nm, slit width emission 5 nm, gain mode 120, delay 0 μs, number of light flashes per measurement 3, and an integration time of 40 μs.
The activity of the active substances is calculated in relation to these 0% and 100%.
With `N#Cc1ccc(NCCNc2nc(-c3ccc(Cl)cc3Cl)cn3nc(C(=O)O)cc23)nc1` [Example 4, 4-({2-[(5-Cyanopyridin-2-yl)amino]ethyl}amino)-6-(2,4-dichlorophenyl)pyrazolo[1,5-a]pyrazine-2-carboxylic acid hydrochloride], it took 0.021 µM to reach half-maximal inhibition (IC50).
The figure for `CN1CCN(CCNC(=O)c2cc3c(NCCNc4ccc(C#N)cn4)nc(-c4ccc(Cl)cc4Cl)cn3n2)CC1` [Example 5] is 0.03 µM.
The figure for `Cc1nc(C)n2nc(-c3ccccc3)nc(NCCNc3ccc(C#N)cn3)c12` [Example 9, 6-({2-[(5,7-Dimethyl-2-phenylimidazo[5,1-f][1,2,4]triazin-4-yl)amino]ethyl}amino)nicotinonitrile] is 0.31 µM; for `CCOC(=O)c1cc2c(N3CCCC(Nc4nc(N)c(C(C)=O)s4)C3)nc(-c3ccc(Cl)cc3Cl)cn2n1` (stereo not shown) [Example 17, Ethyl 4-{3-[(5-acetyl-4-amino-1,3-thiazol-2-yl)amino]piperidin-1-yl}-6-(2,4-dichlorophenyl)pyrazolo[1,5-a]pyrazine-2-carboxylate trifluoroacetate] it is 0.008 µM.
The value for `N#Cc1sc(NC2CCCN(c3nc(-c4ccc(Cl)cc4Cl)cn4nc(C(=O)O)cc34)C2)nc1N` (stereo not shown) [Example 19] was 0.003 µM.
The compound `N#Cc1sc(NCCNc2nc(-c3ccc(Cl)cc3Cl)cn3nc(C(=O)NCC(=O)O)cc23)nc1N` [Example 24] displayed a 50% inhibitory concentration (IC50) of 0.005 µM.
Consider `N#Cc1ccc(NCCNc2nc(-c3ccc(Cl)cc3Cl)cn3nc(CNC4CC4)cc23)nc1` [Example 58], for which the half-maximal inhibitory concentration (IC50) was found to be 0.08 µM. This IC50 is about 16-fold higher than that of the compound before.
